Measurements as given in paper PMC12156367, “Synthesis and Biological Evaluation of Seco-Coumarin/Furoxan Hybrids as Potent Anti-Tumor Agents to Overcome Multidrug Resistance via Multiple Mechanisms” (Molecules, 2025).
pIC50: −log10 of the molar value.

Key:
MCF-7 = experiment: Lysosomal and mitochondrial NO levels (Lyso-NO, Mito-NO probes), MCF-7; format: cell-based, human; conditions: 9e
Description: Lysosomal NO probes (Lyso-NO) and mitochondrial NO probes (Mito-NO), which are specifically used for detecting the nitric oxide levels in lysosomes and mitochondria, respectively, were provided by Professor Weili Zhao (Fudan University, China). Cells (MCF-7 or MCF-7/ADR) were plated in 6-well plates (2 × 10^5 cells/well). After overnight incubation, indicated concentrations of 9e were added to the cells for 4 h. Cells were first treated with 10 μM Lyso-NO or Mito-NO (15 min, 37 °C), then counterstained with Hoechst 33,342 nuclear dye (Beyotime, China; 10 min, 37 °C). Finally, the fluorescence intensity was measured under a fluorescence microscope (Olympus, Tokyo, Japan).

[1] = tested on: MCF-7 (human breast cancer cell line); experiment: In vitro antiproliferative assay (MTT, 48 h), MCF-7; format: cell-based; conditions: MCF7, mean of three determinations
Text: The MDA-MB-468 cell line was procured from the Cell Bank of the Chinese Academy of Sciences. The MCF-7, MCF-7/ADR, MCF-10A, and MDA-MB-231 cell lines were kindly provided by Professor Xianyi Sha (Fudan University, Shanghai, China). The HUVEC cells were kindly provided by Associate Professor Hulie Zeng (Fudan University, Shanghai, China). The MDA-MB-468, MDA-MB-231, MCF-7, MCF-10A, and HUVEC cells were cultivated in DMEM (Service Biotechnology, China) supplemented with 10% FBS (Capricorn Scientific, Germany) and 1% penicillin-streptomycin (Meilunbio, Dalian, China). For the MCF-7/ADR cells, they were cultured in RPMI-1640 (Service Biotechnology, Wuhan, China), containing 10% FBS and 1% penicillin-streptomycin. […]
(§1) Following harvest during logarithmic growth, cells were plated in 96-well culture plates at an initial density of 5000 cells per well. […] The OD value at 570nm was measured using a microplate reader (Thermo Fisher, Waltham, MA, USA). Cell proliferation inhibition was determined using the following formula:Inhibition (%) = [(ODDMSO − ODcompd.)/(ODDMSO − ODblank)] × 100
GraphPad Prism software 9 was used to calculate the IC50 values. […] For instance, in the cell experiment, we recorded the cell viability values at different drug concentrations. […]

[2] = Solubility experiment (HPLC) in water/acetonitrile; format: physicochemical; conditions: in water/acetonitrile (table title)
Description: Wavelength: 254 nm; flow rate: 1.0 mL/min; column temperature: 25 °C. Mobile phase: Phase A: water, Phase B: acetonitrile (Table 5).
Compounds were dissolved in chromatographic-grade acetonitrile and diluted to concentrations of 200, 100, 50, 25, 12.5, and 6.25 µg/mL. A standard curve was plotted using the peak area under the curve (AUC) versus concentration. […] The supernatant was filtered through an ultrafiltration membrane and then subjected to HPLC analysis. The solubility of the target compound was determined by substituting the AUC of the test compound into the standard curve. Each measurement was performed in triplicate.

[3] = tested on: HUVEC (human umbilical vein endothelial cell lines); experiment: Cytotoxicity screen in HUVEC; format: cell-based; conditions: 500 nM concentration
Text: The MDA-MB-468 cell line was procured from the Cell Bank of the Chinese Academy of Sciences. The MCF-7, MCF-7/ADR, MCF-10A, and MDA-MB-231 cell lines were kindly provided by Professor Xianyi Sha (Fudan University, Shanghai, China). The HUVEC cells were kindly provided by Associate Professor Hulie Zeng (Fudan University, Shanghai, China). The MDA-MB-468, MDA-MB-231, MCF-7, MCF-10A, and HUVEC cells were cultivated in DMEM (Service Biotechnology, China) supplemented with 10% FBS (Capricorn Scientific, Germany) and 1% penicillin-streptomycin (Meilunbio, Dalian, China). For the MCF-7/ADR cells, they were cultured in RPMI-1640 (Service Biotechnology, Wuhan, China), containing 10% FBS and 1% penicillin-streptomycin. Additionally, 500 ng/mL of doxorubicin (Sigma-Aldrich, Saint Louis, MO, USA) was incorporated into the RPMI-1640 culture medium to keep drug resistance. All cell lines were cultured in a humidified incubator at 37 °C with a 5% CO2 atmosphere.
as §1, with “well. Incubate the plate overnight at 37 °C to allow the cells to adhere.” for “well.”, “100 […]” for “100”

Structure (SMILES): COc1ccc(CCC(=O)c2ccc(OCCOc3no[n+]([O-])c3S(=O)(=O)c3ccccc3)cc2OC)cc1 [Compound 9e, 4-(2-(3-methoxy-4-(3-(4-methoxyphenyl)propanoyl)phenoxy)ethoxy)-3-(phenylsulfonyl)-1,2,5-oxadiazole 2-oxide]
- Lyso-NO and Mito-NO probe fluorescence intensity (MCF-7): no increase in fluorescence intensity
- pIC50 [1]: 5.37
- Solubility [2]: 56.4 ± 5.5%
- cell survival probability in HUVEC [3]: over 90%
